The record followed here is PubChem BioAssay (NCI).

SMILES strings stand for the structures. “And” between values parts separate entries of the source, which are not always exact repeats. Equal values may be shown once.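 How tested: cells in 96-well plates exposed to compound for 48 hours at five concentrations. GI50: concentration for 50% inhibition of growth. At the TGI there is no net growth.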

Test systems include HOP-92 NSCLC; SW-620 colon; UO-31 renal; TK-10 renal; SF-295 CNS; SK-MEL-2 melanoma; HOP-62 NSCLC; NCI-H522 lung; CAKI-1 renal; NCI-H460 lung.
Common to all, as to assay: inhibition of tumour cell growth, NCI panel, 48 h

With `CC(C)N(CC(=O)O)CC(=O)O`, the TGI in the assay with HOP-92 NSCLC, in the assay on SW-620 colon, with UO-31 renal, in the assay with TK-10 renal, with SF-295 CNS and in the assay with SK-MEL-2 melanoma was over 100 µM throughout. In addition, the TGI with HOP-62 NSCLC, with NCI-H522 lung, in the assay on CAKI-1 renal and in the assay on NCI-H460 lung was over 100 µM in each case.

Turning to `O=C1c2cc3c(cc2[C@@H]2C(O)[C@H]4O[C@H]4C4CCN1C42)OCO3` (some centres not stated), the TGI in the assay on HOP-92 NSCLC, in the assay on SW-620 colon, with UO-31 renal, in the assay with TK-10 renal, in the assay on SF-295 CNS and in the assay with SK-MEL-2 melanoma was over 37.5 µM each time. The TGI in the assay with HOP-62 NSCLC, in the assay on NCI-H522 lung, with CAKI-1 renal and in the assay on NCI-H460 lung was over 37.5 µM each time.

On to `C[C@@]12CC[C@@H](O)C[C@@H]1CC[C@H]1[C@H]2CC[C@@]2(C)[C@H](c3ccc(=O)oc3)CC[C@@]12O`, for which the GI50 in the assay with HOP-92 NSCLC, in the assay with SW-620 colon, in the assay on UO-31 renal, in the assay with TK-10 renal, in the assay on SF-295 CNS and in the assay on SK-MEL-2 melanoma was under 0.01 µM throughout. Besides, the GI50 with HOP-62 NSCLC, in the assay with NCI-H522 lung and in the assay with CAKI-1 renal was under 0.01 µM in each case. Further, the TGI in the assay on HOP-92 NSCLC is 0.0571 µM; in the assay on SW-620 colon, 0.018 µM; in the assay on UO-31 renal it was 0.0147 µM; in the assay on TK-10 renal it was 0.028 µM; in the assay with SF-295 CNS, 0.025 µM; in the assay with SK-MEL-2 melanoma, 0.0299 µM. In addition, the figures for the TGI with HOP-62 NSCLC, in the assay with NCI-H522 lung and with CAKI-1 renal were 0.0156 µM, 0.021 µM and 0.0148 µM, respectively.

`O=C(c1ccccc1)c1ccc(N2C(=O)/C(=C/c3cccc(Oc4ccccc4)c3)N=C2c2ccccc2)c(N2C(=O)/C(=C/c3cccc(Oc4ccccc4)c3)N=C2c2ccccc2)c1`: the TGI in the assay with HOP-92 NSCLC is over 100 µM; in the assay on SW-620 colon, over 100 µM; in the assay on UO-31 renal, over 100 µM; in the assay on TK-10 renal it was 79.4 µM; in the assay on SF-295 CNS it was over 100 µM; in the assay on SK-MEL-2 melanoma, 71.2 µM. Besides, the TGI in the assay on HOP-62 NSCLC was over 100 µM; with NCI-H522 lung, 51 µM; with CAKI-1 renal it was over 100 µM; in the assay on NCI-H460 lung, 80.4 µM.

As for `CCOC(=O)C(C(=O)OCC)c1cc(-c2cc3ccccc3o2)oc(=O)c1C#N`, the TGI in the assay with HOP-92 NSCLC worked out at 20.6 µM; in the assay with SW-620 colon, 52.6 µM; with UO-31 renal it was 90.3 µM; in the assay on TK-10 renal it was 52.1 µM; with SF-295 CNS, 48.2 µM; with SK-MEL-2 melanoma, 38.2 µM. Also, the TGI was 38.1 µM in the assay on CAKI-1 renal and over 100 µM in the assay on NCI-H460 lung.

Turning to `NC1=NC(c2ccc(Cl)cc2)=CC(c2cccc(Cl)c2)S1` (configuration not stated), the TGI in the assay on HOP-92 NSCLC was 60.1 µM; in the assay on SW-620 colon it was over 100 µM; in the assay with UO-31 renal, 84.6 µM; in the assay with TK-10 renal it was 60.7 µM; in the assay with SF-295 CNS it was over 100 µM; with SK-MEL-2 melanoma, 55.5 µM. Moreover, the TGI with HOP-62 NSCLC is over 100 µM; with NCI-H522 lung, 55.8 µM; in the assay with CAKI-1 renal it was 92.5 µM; with NCI-H460 lung it was over 100 µM.

Take `CC(C)=CCC/C(C)=C/Cc1c2c(c3oc(-c4ccc(O)c(O)c4)c(O)c(=O)c3c1O)C=CC(C)(C)O2`: the TGI in the assay with UO-31 renal came out at 10.2 µM; with TK-10 renal, 11.2 µM; in the assay with SF-295 CNS it was 13.4 µM; with SK-MEL-2 melanoma, 13.7 µM; in the assay with HOP-62 NSCLC, 10.7 µM; with NCI-H522 lung it was 2.9 µM. Besides, the TGI in the assay with CAKI-1 renal came to 5.55 µM; with NCI-H460 lung, 10.9 µM.

`COc1ccc2c(O)c1-c1c(OC)ccc(c1O)SSc1ccc(OC)c(c1O)-c1c(OC)ccc(c1O)SS2`: the TGI with HOP-92 NSCLC is 90.1 µM; in the assay on SW-620 colon it was over 100 µM; in the assay with UO-31 renal, 14 µM; in the assay with TK-10 renal, over 100 µM; in the assay on SF-295 CNS it was over 100 µM; with SK-MEL-2 melanoma it was over 100 µM. Also, the TGI was over 100 µM in the assay with HOP-62 NSCLC, 15.5 µM in the assay on NCI-H522 lung and over 100 µM in the assay on CAKI-1 renal.

With `CN(C)CCC(=O)[C@@]1(O)CC[C@H]2[C@@H]3CC=C4C[C@@H](O)CC[C@]4(C)[C@H]3CC[C@@]21C`, the TGI with HOP-92 NSCLC was 39.7 µM; in the assay on SW-620 colon, 50.2 µM; in the assay with UO-31 renal, 31.7 µM; in the assay on TK-10 renal, 6.96 µM; with SF-295 CNS, over 73.9 µM; with SK-MEL-2 melanoma, 37.1 µM. Also, the TGI with HOP-62 NSCLC came out at 30.6 µM; with NCI-H522 lung it was 25.3 µM; in the assay with CAKI-1 renal, 34.6 µM; in the assay on NCI-H460 lung it was 30.9 µM.

For the compound `COc1cc2cc(C(=O)N3CC(CCl)c4ccc(NO)cc43)[nH]c2c(OC)c1OC` (configuration not stated), the TGI in the assay with SW-620 colon was over 100 µM; in the assay on UO-31 renal it was 0.392 µM; in the assay with TK-10 renal, over 100 µM; in the assay on SF-295 CNS it was 0.6 µM; in the assay on SK-MEL-2 melanoma, 0.325 µM; with HOP-62 NSCLC it was 0.749 µM. The TGI was 0.354 µM with NCI-H522 lung, 3.44 µM in the assay with CAKI-1 renal and over 37.7 µM with NCI-H460 lung.

For the compound `Cc1ccc(C(=O)NC2C(=O)NC(C(C)C)C(=O)N3CCCC3C(=O)N(C)CC(=O)N(C)C(C(C)C)C(=O)OC2C)c2c1Oc1c(c(C(=O)NC3C(=O)NC(C(C)C)C(=O)N4CCCC4C(=O)N(C)CC(=O)N(C)C(C(C)C)C(=O)OC3C)c3nc(-c4ccccc4)c(=O)oc3c1C)N2` (configuration not stated), the TGI is 0.156 µM and 0.0741 µM with HOP-92 NSCLC; 12 µM in the assay on SW-620 colon; 0.194 µM and 0.122 µM in the assay with UO-31 renal; 11.4 µM in the assay on TK-10 renal; 0.12 µM in the assay with SF-295 CNS; 0.00278 µM with SK-MEL-2 melanoma. The TGI in the assay with HOP-62 NSCLC was 0.00223 µM; in the assay on NCI-H522 lung, 0.0342 µM; in the assay on CAKI-1 renal, over 100 µM. The GI50 in the assay on TK-10 renal was 0.013 µM.

As for `CCCCC(CC)C(=O)Oc1ccc(C(=O)c2ccccc2)c(O)c1` (configuration not stated), the TGI in the assay with HOP-92 NSCLC is 59.4 µM; in the assay on SW-620 colon, over 100 µM; in the assay on UO-31 renal, over 100 µM; in the assay on TK-10 renal, over 100 µM; in the assay on SF-295 CNS it was over 100 µM; in the assay on SK-MEL-2 melanoma it was over 100 µM. In addition, the TGI in the assay with HOP-62 NSCLC is over 100 µM; in the assay on NCI-H522 lung, 98.2 µM; in the assay on CAKI-1 renal, over 100 µM; in the assay with NCI-H460 lung it was over 100 µM.
